Patent US7919260B2, “Screening methods using GPR52” (Takeda Pharmaceutical Company Limited, priority 2005, dated 2011)

How the values were obtained:
Type in all cases: cell-based
[1] = tested on: NMDA-type glutamate receptor; assay: Activation of NMDA-type glutamate receptor in neurons from rat embryonic cerebral cortex (fura-2 intracellular calcium, AQUACOSMOS)
Description: Neurons from rat embryonic cerebral cortex (CAMBREX) were cultured in a 48-well poly-L-lysine (Sumitomo Bakelite) for 14-15 days by a modification of the method attached. A neuron culture medium (Dainippon Pharmaceutical) was used as a medium, unless otherwise indicated. Changes in intracellular calcium levels were assayed using AQUACOSMOS (Hamamatsu Photonics). For assaying the changes in intracellular calcium levels, the following pretreatment was made. First, in order to add fluorescence dye fura-2/AM (Molecular Probes) to cells, an assay buffer used to wash the cells immediately before the assay was prepared. To 1000 ml of HBSS (Invitrogen) supplemented with 20 ml of 1M HEPES (pH7.4) (DOJIN) (hereinafter HBSS/HEPES solution), 10 ml of a solution prepared by dissolving 710 mg of Probenecid (Sigma) in 5 ml of 1N NaOH and further adding 5 ml of the HBSS/HEPES solution thereto was added, and the resulting solution was used as the assay buffer. Next, an equal volume of 20% Pluronic acid (Molecular Device) was added to and mixed with the fura-2/AM stock solution. The mixture was dissolved in the assay buffer in a final concentration of 5 μM fura-2 to prepare the fura-2 fluorescence dye solution. The fura-2 fluorescence dye solution was loaded on neurons from the rat embryonic cerebral cortex, followed by incubation for 30-60 minutes. Thereafter, the changes in calcium levels in the individual neurons were determined using AQUACOSMOS (Hamamatsu Photonics).
Activation of the NMDA-type glutamate receptor in the cerebral cortex was analyzed by the procedures described in EXAMPLE 9.

[2] = tested on: NMDA-type glutamate receptor; assay: Phosphorylation (Ser897) of NMDA-type glutamate receptor in rat primary culture neurons (western blot, Anti-phospho-NR1); conditions: 50 μM Compound A; cells recovered 1, 2, 5, 15 and 30 minutes after
Description: Using primary culture neurons from the rat […], phosphorylation of the NMDA-type glutamate receptor by GPR52 agonists was studied. Rat (Wistar, Charles River Japan) embryonic brain (E19) was dissected to isolate the cerebral cortex, and the cells were prepared using Neuron Dispersion Set (Dainippon Pharmaceutical). The cells were plated on a 24-well poly-L-lysine plate (3×10^5 cells/well) and incubated for 2 weeks in Neuro Basal (B27, containing 0.5 mM glutamine, GIBCO) medium. Compound A was added to the above cells at a final concentration of 50 μM, and the cells were recovered 1, 2, 5, 15 and 30 minutes after. After the cells were lysed in Invitrogen's NuPAGE Sample Buffer (containing DTT), western blot analysis was performed using antibody Anti-phospho-NR1 (Ser897) (Upstate).

[3] = biological target: T1, GPR52 (Homo sapiens, UniProt Q9Y2T5); assay: Screening of GPR52 agonists: intracellular cAMP in GPR52 stable expression cells (AlphaScreen cAMP Assay Kit); design: expressed in transfected cells; conditions: secondary screening at 100-0.1 μM
Description: The GPR52 stable expression cells prepared in REFERENCE EXAMPLE 1 were incubated in a 150 cm^2 at 37° C. overnight in a CO2 incubator. After the incubation, the cells were detached with 0.5 mM EDTA/PBS, and washed in PBS. The cells were then suspended at a density of 1×10^7 cells/ml in Buffer 1 (HBSS+0.1% BSA, 25 mM HEPES, pH 7.3, 0.5 mM IBMX). This cell suspension, 440 μl, was mixed with 22 μl of Anti-cAMP Acceptor Beads of AlphaScreen cAMP Assay Kit (Perkin Elmer) and 638 μl of Buffer 1. The resulting mixture was dispensed on a white 96-well plate (Costar) by 10 μl each. Next, 10 μl each of the test compound dilutions in Buffer 1 was added to each well. After shaking at room temperature for 30 minutes, 20 μl of Biotinyl cAMP and 82 μl of Streptavidin Donor Beads of AlphaScreen cAMP Assay Kit was added to 40 ml of Buffer 2 (HBSS+0.1% BSA, 25 mM HEPES, pH 7.3, 1.5% Tween 20) and the resulting mixture was added to all wells of the plate by 30 μl each. The plate was kept shaken at room temperature for 3 hours and the fluorescence intensities were measured by Fusion α (Perkin Elmer).
Secondary screening was applied to these compounds in various concentrations (100 μM, 30 μM, 10 μM, 3 μM, 1 μM and 0.1 μM) using the procedures described in EXAMPLE 11 (detailed analysis).

[4] = biological target: T1, GPR52; assay: Changes in intracellular calcium levels on FLIPR in CNGC-E583M/HEK293 cells transiently expressing human GPR52; design: expressed in transfected cells; host or cells: CNGC-E583M/HEK293 cells (HEK293 stably expressing rat olfactory cyclic nucleotide-gated channel E583M), transient transfection of pAKKO-GPR52; conditions: human GPR52 transiently expressed in CNGC-E583M/HEK293; reserpine 1.0-100 μM (FIG. 1), methoctramine 15-75 μM (FIG. 2); no such response in control cells transfected with other receptor vector
Description: The stable expression cell line (CNGC-E583M/HEK293 cell line) of rat olfactory cyclic nucleotide-gated channel (CNGC-E583M), which was used as a host cell, was obtained by inserting rat olfactory cyclic nucleotide-gated channel (CNGC-E583M) cDNA into expression vector pcDNA3.1(+) neo (Invitrogen) (pcDNA3.1-CNGC), transfecting pcDNA3.1-CNGC into HEK293 cells (purchased from ATCC) in a conventional manner, and incubating the cells in DMEM (Dulbecco's modified Eagle medium) supplemented with 10% fetal calf serum (Invitrogen) and 800 mg/l geneticin (Invitrogen) under 5% CO2 at 37° C. [Fagan et al., FEBS, 500, 85 (2001); Reinescheid et al., European Journal of Pharmacology, 478, 27 (2003)]. The CNGC-E583M/HEK293 cells were incubated in a collagen-coated 75 cm^2 flask. […] First, an assay buffer was prepared to add fluorescence dye Fluo-3AM (DOJIN) to the cells or to wash the cells immediately before the FLIPR assay. […] The mixture was then added to 10.6 ml of the assay buffer supplemented with 105 μl of fetal calf serum, and 20 μl of 500 mM IBMX/DMSO was further added to prepare a fluorescence dye solution. The fluorescence dye solution was dispensed onto the cell plate by 100 μl each/well using an 8-channel pipette and the cells were incubated at 37° C. in a 5% CO2 incubator for an hour (dye loading). […]

[5] = biological target: T2, human GPR52-GFP (Homo sapiens, UniProt Q9Y2T5, I167T); assay: Internalization of GPR52-GFP fusion protein expressed in CHO cells (confocal microscopy); conditions: reserpine 10^-4 M, 30 minutes after addition
T2 construct: expressed in transfected cells; host or cells: CHO cells, vector pAKKO-111H
Description: An expression plasmid was constructed to express a fused protein of Green Fluorescent Protein (GFP) cDNA isolated from jellyfish or Auquorea victoria, fused to GPR52 at the C-terminus to fit the translation frame. In this case, a fragment excised from GFP expression vector pQBI25 (Takara Shuzo) was used as GFP cDNA. In GPR52, its termination codon was modified by PCR to recognition sequence with restriction enzyme NheI, and the GFP fragment was ligated thereto, which was inserted into the expression vector pAKKO-111H [Biochem. Biophys. Acta, 1219, 251 (1994)] and transfected to CHO cells in a conventional manner to obtain the human GPR52-GFP expression CHO cell line. The human GPR52-GFP expression CHO cells were suspended in a growth medium [αMEM (containing nucleic acids: Invitrogen) supplemented with 10% fetal calf serum (GIBCO BRL)] and plated on a Lab-TekII cover glass chamber with 4 chambers (Nalgen Nunc) in a concentration of 0.6×10^5 cells/chamber. […] In this case, GFP was excited at 488 nm.

[6] = biological target: T1, GPR52; assay: Increase of intracellular cAMP levels in human GPR52 expression CHO cell line (cAMP Screen Kit); design: expressed in transfected cells; conditions: reserpine in various concentrations, 30 minutes; negative controls Mock CHO and TGR5 CHO cell lines (FIG. 3)
Description: The human GPR52 expression CHO cells obtained in REFERENCE EXAMPLE 1 was washed in the assay medium (HBSS (Gibco BRL) supplemented with 0.2 mM isobutylmethylxanthine), followed by incubation for 30 minutes under conditions at 37° C. in 5% CO2. Then, reserpine diluted in the assay medium was added in various concentrations. The assay buffer alone was used as a Base. After the addition, incubation was conducted for 30 minutes under conditions at 37° C. in 5% CO2. The culture supernatant was discarded and the intracellular cAMP level was assayed on the plate reader (EnVision, Perkin-Elmer) in accordance with the protocol of cAMP Screen Kit (Applied Biosystems). As negative controls, the CHO cell line (Mock) wherein no exogenous receptor was expressed and the CHO cell line (TGR5) wherein Gs-conjugated receptor TGR5 was stably expressed were co-assayed.

internalization of GPR52-GFP fused protein (GFP fluorescence moved from cell membrane to cytoplasm) [5]	SMILES	calcium level increase on addition after glutamate ([1]; 10 μM glutamate, then 10 μM Compound A during diminution of the calcium increase)	calcium level increase, compound alone without glutamate ([1]; 15 μM Compound A alone, glutamate not added)	phosphorylation (Ser897) of the NMDA-type glutamate receptor [2]	EC50 [3] [nM]	calcium level increase (ratio of Fura-2 fluorescence) on addition after glutamate ([1]; 10 μM glutamate, then 0.2 mM methoctramine during diminution of the calcium increase, n=11 neurons (FIG. 4))	calcium level increase (ratio of Fura-2 fluorescence), compound alone without glutamate ([1]; 0.2 mM methoctramine alone, glutamate not added beforehand, n=27 neurons (FIG. 5))	intracellular calcium ion levels [4]	intracellular cAMP levels [6]
–	Cc1ncc2c(n1)N(CCCN1CCNCC1)CCC2Nc1cccc(Oc2cccc(Cl)c2)c1.Cl.Cl.Cl.Cl (stereo not shown) [Compound A, N-[3-(3-chlorophenoxy)phenyl]-2-methyl-8-[3-(1-piperazinyl)propyl]-5,6,7,8-tetrahydropyrido[2,3-d]pyrimidine-5-amine tetrahydrochloride]	reactivated to induce the calcium level increase	any increase in calcium levels was not observed	induced phosphorylation (Ser897)	2100	–	–	–	–
–	COc1ccccc1CNCCCCCCNCCCCCCCCNCCCCCCNCc1ccccc1OC [methoctramine]	–	–	–	–	reactivated to induce the calcium level increase	any increase in calcium levels was not observed	increased dose-dependently	–
internalization occurred	COC(=O)[C@H]1[C@H]2C[C@@H]3c4[nH]c5cc(OC)ccc5c4CCN3C[C@H]2C[C@@H](OC(=O)c2cc(OC)c(OC)c(OC)c2)[C@@H]1OC [reserpine]	–	–	–	–	–	–	increased dose-dependently	detected dose-dependently only in the human GPR52 expression CHO cell line
